Laboratory results from US11548855B2, “Pyrazole amide compound and application thereof, and fungicide” (Shandong United Pesticide Industry Co. Ltd., priority 2017, dated 2023).

How the values were obtained:
[1] = tested on: wheat powdery mildew; assay: Field trial, wheat powdery mildew; assay type: in vivo, Erysiphe graminis; details: sprayed once
Description: II. The Wheat Powdery Mildew Test Method:
(§1) Spray method: Stein and leaf spraying (Applicator: Xinkangda lithium battery electric sprayer).
Test crops: wheat (cultivars: Liaochun 10)
(§2) The test was carried out in Shenyang, the test field was loam with rich organic matters and normal management of fertilizer and water, and no other pesticide was applied during the test.
(§3) The arrangement of the test plot was random block permutation; the area of the test plot: 15 m^2; repeat times: 3 times; spray time and frequency: Sep. 17, 2018, once. Spray dosage: each treatment was repeated 3 times, the total water consumption was 8 L. No other pesticide was applied during the test.
The incidence of disease spots in each plot was investigated by diagonal selecting 4 samples/plot and 20 plants/samples, and the first leaf below the flag leaf of each plant was investigated.
(§4) The grading standard of crop disease was as follows:
(§5) Grade 0: no leaf-spot area;
(§6) Grade 1: the ratio of leaf-spot area to leaf area is less than 5%;
(§7) Grade 3: the ratio of leaf-spot area to leaf area is between 6-25%;
(§8) Grade 5: the ratio of leaf-spot area to leaf area is between 26-50%;
(§9) Grade 7: the ratio of leaf-spot area to leaf area is between 51-75%;
(§10) Grade 9: the ratio of leaf-spot area to leaf area is between 76-100%;
(§11) According to the relevant content of the “Guidelines for the field efficacy trials of pesticides of the People's Republic of China (PRC)”, the disease index was calculated according to the grading standard, and the control effect in a unit of % was calculated based on the disease index, and the test data of significance analysis was performed by using DPS evaluation system (DMRT).

[2] = tested on: soybean rust; assay: Field trial, soybean rust; assay type: in vivo, Phakopsora pacchyrhizi Sydow; details: sprayed 2 times
Description: III. The Soybean Rust Test Method:
as §1
Test crops: soybean (cultivars: Glycine max(L) Merr)
as §2
as §3, with “25” for “15”, “2 times on Aug. 11, 2018 and Aug. 21, 2018 respectively.” for “Sep. 17, 2018, once.”, “test. […] 15-20 days after the second spray treatment, the control effect was investigated.” for “test.”
The incidence of disease spots in each plot was investigated by diagonal selecting 5 samples/plot and 20 plants/samples, 10 leaves/plant was surveyed.
as §4, §5, §6, §7, §8, §9, §10, §11

[3] = tested on: soybean rust (Phakopsora pacchyrhizi Sydow); assay: Greenhouse pot test, soybean rust; assay type: in vivo; details: Glycine max, 168 h, read-out: Control effect (%) Soybean rust
Description: Test method: each of the test compounds in Table 1 was dispensed to 5 wt % emulsifiable concentrate (hereinafter referred to as 5% EC). The greenhouse pot test was used in each experiment, and the effective concentrations of each compound were illustrated in Table 1.
Soybean rust: two-leaf stage potted soybean seedling with uniform growth was selected and made foliar spray treatment with 5% EC, the blank control sprayed with clean water was additionally arranged, three replicates were carried out. After 24 h, the leaves of the host plants were inoculated with sporangial suspensions of the fungi soybean rust (Phakopsora pacchyrhizi Sydow), the plants were stored in humidity chamber (temperature 20-25° C., relative humidity>95%) and then transferred to greenhouse (25±1° C.) 8-16 h after infection. After 7 days, the screening results were investigated according to the disease incidence condition of blank control.
The investigation method: “Guidelines for the field efficacy trials of pesticides” was adopted as the grading standard, and the control effect in a unit of % was calculated based on the disease index. Disease index=Σ(number of diseased leaves at each grade×relative grade value)×100/(total number of leaves×9); Control effect (%)=(disease index of control−disease index of treated)×100/disease index of control;
The compounds provided by the present disclosure and some control compounds were tested by the same methods in the Test example 1, except that the effective concentrations of the compounds in this Test example are shown in Table 2.

In the case of `Cn1cc(C(=O)Nc2ccccc2Oc2ccc(C(F)(F)F)cc2C(F)(F)F)c(C(F)F)n1` [Compound 1], the “Control effect (%) Wheat powdery mildew” value ([1]; 100 mg/L) is reported as 98%, the “Control effect (%) Wheat powdery mildew” value ([1]; 200 mg/L) is reported as 100% and the “Control effect (%)” value ([2]; dosage 50 mg/L) is reported as 92.67%. The “Control effect (%)” value ([2]; dosage 75 mg/L) was 94.56%, the “Control effect (%)” value ([2]; dosage 100 mg/L) was 97.69% and the pest or weed control at 0.5 µg/mL ([3]; 0.5 mg/L) was 100%. The pest or weed control at 1 µg/mL ([3]; 1 mg/L) was 100%, the pest or weed control at 1.5625 µg/mL ([3]; 1.5625 mg/L) was 100% and the pest or weed control at 2.5 µg/mL ([3]; 2.5 mg/L) was 100%. It also gave a pest or weed control at 3.125 µg/mL ([3]; 3.1250 mg/L) of 100%, a pest or weed control at 6.25 µg/mL ([3]; 6.25 mg/L) of 100% and a pest or weed control at 10 µg/mL ([3]; 10 mg/L) of 100%. It also gave a pest or weed control at 25 µg/mL ([3]; 25 mg/L) of 100% and a pest or weed control at 100 µg/mL ([3]; 100 mg/L) of 100%.
